Test results published in paper PMC8705818, “Experimental Characterization of the Interaction between the N-Terminal SH3 Domain of Crkl and C3G” (International Journal of Molecular Sciences, 2021).
Peptide text beside a SMILES is read from it. * marks the point of attachment. Dansyl = CN(C)c1cccc2c(S(=O)(=O)*)cccc12

Target: T1, N-SH3 domain of Crkl (WT) (Homo sapiens, UniProt P46109)
T1 construct: The construct encoding the N-SH3 domain of Crkl was subcloned in a pET28b+ plasmid vector; His-tag; made in house; host or cells: E. coli BL21
Experiment: Stopped-flow kinetic binding, N-SH3 WT versus C3G277–296
Conditions: 10 °C
From the text: In order to characterize the binding reaction between the N-SH3 domain of Crkl and C3G, we conducted kinetic binding experiments with a stopped-flow apparatus, by rapidly mixing the N-SH3 domain versus the C3G277–296 peptide, the latter covalently linked with a dansyl group at its N-terminus (Dansyl-[…]). This modification allowed us to monitor the binding reaction by following the change of Förster resonance energy transfer (FRET) signal upon binding, which generates from the two naturally present tryptophan residues in the N-SH3 domain in position 164 and 165 (donor) and the dansyl group linked to the peptide (acceptor).
To characterize the binding between N-SH3 and the C3G277–296 peptide, we resorted to carry out pre-steady state rapid mixing stopped-flow experiments. In these types of experiments, a common practice lies in performing the kinetic analysis under the so-called pseudo-first-order conditions, i.e., a condition in which one of the two reactants is held at a much higher concentration than the other. In practice, in many cases, it is extremely difficult to achieve such conditions. This is particularly true in cases in which the observed rate constants are so high to approach the experimental limitations of the stopped-flow apparatus. Accordingly, as described below, the analysis of the binding data must be performed by applying the analytical solution of the bimolecular binding transition.
We rapidly mixed a constant concentration of C3G277–296 peptide (0.5 µM) versus increasing concentrations of N-SH3 (ranging from 0.5 to 5 µM) and the observed rate constants (kobs) obtained at different ionic strength conditions (buffer Hepes 50 mM, pH 7.0, 0.15 M, 0.3 M, 0.5 M and 1 M NaCl) were plotted as function of concentration of N-SH3 and fitted with a linear equation (Figure 1). By following previously derived equations [19, 20], the dependence of kobs as function of [N-SH3] was fitted with Equation (1), taking into account the non-pseudo-first order conditions, allowing us to calculate the microscopic association rate constant (kon), the microscopic dissociation rate constant (koff) of the binding reaction and the equilibrium dissociation rate constant KD, such as koff/kon. To increase the reliability of the calculated KD, we resorted to directly obtaining a koff value through displacement experiments (Table 1), in which a preincubated complex of N-SH3 domain and dansylated C3G277–296 peptide (at the concentration of 0.5 and 2 µM, respectively) were rapidly mixed versus a high excess of nondansylated peptide (ranging from 20 to 40 µM). In agreement with the theory in [21], the observed rate constants were insensitive to displacer concentration. In all binding and displacement experiments conducted, traces were satisfactorily fitted with a single-exponential equation. (1) kobs=(kon^2∗(2−[NSH3])^2+koff^2+2konkoff(2+[NSH3]))^1/2
To further investigate the role of charges in the binding reaction between N-SH3 domain and C3G, we resorted to performing kinetic binding experiment at different pH conditions, at a range of pH between 5.0 and 9.0. The observed rate constants obtained at different pH conditions were fitted with Equation (1) (Figure 2, left), and the calculated kinetic parameters kon and koff (obtained from separated displacement experiments) are reported in Table 1.
Kinetic binding experiments were performed on a single-mixing SX-18 stopped-flow instrument (Applied Photophysics), by mixing a constant concentration (0.5 μM) of C3G dansylated versus increasing concentrations of N-SH3 at 10 °C. Ionic strength dependence of wt N-SH3 was performed with concentrations ranging from 1 to 5 µM for 0 M NaCl condition and from 0.5 to 5 µM for 0.15 M, 0.3 M, 0.5 M and 1 M NaCl, buffer Hepes 50 mM pH 7.0. The excitation wavelength was 280 nm, and fluorescence was collected using a 455 nm cut-off filter. At least, five independent acquisitions were collected and averaged for each experiment. […]

T1 sequence (P46109 123-183 limits assumed): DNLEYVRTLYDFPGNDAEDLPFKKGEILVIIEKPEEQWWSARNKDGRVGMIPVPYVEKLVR

Compound CC(C)C[C@H](NC(=O)[C@H](C)NC(=O)[C@@H]1CCCN1C(=O)[C@@H]1CCCN1C(=O)[C@@H]1CCCN1C(=O)[C@H](CO)NC(=O)[C@H](CC(N)=O)NC(=O)[C@H](CC(=O)O)NC(=O)[C@@H](NC(=O)[C@@H](NS(=O)(=O)c1cccc2c(N(C)C)cccc12)C(C)C)C(C)C)C(=O)N1CCC[C@H]1C(=O)N1CCC[C@H]1C(=O)N[C@@H](CCCCN)C(=O)N[C@@H](CCCCN)C(=O)N[C@@H](CCCNC(=N)N)C(=O)N[C@@H](CCC(N)=O)C(=O)N[C@@H](CO)C(=O)N[C@@H](C)C(=O)N1CCC[C@H]1C(=O)N[C@@H](CO)C(=O)O [C3G277–296] (Dansyl-VVDNSPPPALPPKKRQSAPS-OH) has a kon (pH 5, pH 5.0 (50 mM Sodium Acetate), 0.5 M NaCl, 0.5 µM dansylated peptide vs 4.0–8.0 µM N-SH3) of 4.4e+07 ± 1.5e+07 M⁻¹ s⁻¹, a kon (pH 5.5, pH 5.5 (50 mM Sodium Acetate), 0.5 M NaCl, 0.5 µM dansylated peptide vs 2.0–7.0 µM N-SH3) of 3.7e+07 ± 3e+06 M⁻¹ s⁻¹ and a kon (pH 6.5, pH 6.5 (Bis–Tris 50 mM), 0.5 M NaCl, 0.5 µM dansylated peptide vs 0.5–5.0 µM N-SH3) of 6.5e+07 ± 4e+06 M⁻¹ s⁻¹. The kon (pH 7, 0 M NaCl, Hepes 50 mM pH 7.0, 0.5 µM dansylated peptide vs 1–5 µM N-SH3, FRET, ex 280 nm, 455 nm cut-off, at least five acquisitions averaged) was 1.3e+08 ± 7e+06 M⁻¹ s⁻¹, the kon (pH 7, 0.15 M NaCl, Hepes 50 mM pH 7.0, 0.5 µM dansylated peptide vs 0.5–5 µM N-SH3, FRET) was 9.6e+07 ± 8e+06 M⁻¹ s⁻¹ and the kon (pH 7, 0.3 M NaCl, Hepes 50 mM pH 7.0, 0.5 µM dansylated peptide vs 0.5–5 µM N-SH3, FRET) was 8.3e+07 ± 7e+06 M⁻¹ s⁻¹. For the same compound, the kon (pH 7, 0.5 M NaCl (ionic strength series), Hepes 50 mM pH 7.0, 0.5 µM dansylated peptide vs 0.5–5 µM N-SH3, FRET) was 5.1e+07 ± 4e+06 M⁻¹ s⁻¹, the kon (pH 7, 1.0 M NaCl, Hepes 50 mM pH 7.0, 0.5 µM dansylated peptide vs 0.5–5 µM N-SH3, FRET) was 6.8e+07 ± 5e+06 M⁻¹ s⁻¹ and the kon (pH 7, pH 7.0 (Hepes 50 mM), 0.5 M NaCl (pH series), 0.5 µM dansylated peptide vs 1.5–6.0 µM N-SH3) was 5.2e+07 ± 5e+06 M⁻¹ s⁻¹. For the same compound, the kon (pH 7.5, pH 7.5 (Hepes 50 mM), 0.5 M NaCl, 0.5 µM dansylated peptide vs 0.5–5.0 µM N-SH3) was 5.1e+07 ± 5e+06 M⁻¹ s⁻¹, the kon (pH 8, pH 8.0 (Tris–HCl 50 mM), 0.5 M NaCl, 0.5 µM dansylated peptide vs 1.5–6.0 µM N-SH3) was 5.6e+07 ± 5e+06 M⁻¹ s⁻¹ and the kon (pH 8.5, pH 8.5 (Tris–HCl 50 mM), 0.5 M NaCl, 0.5 µM dansylated peptide vs 1.5–6.0 µM N-SH3) was 6.8e+07 ± 7e+06 M⁻¹ s⁻¹. For the same compound, the kon (pH 9, pH 9.0 (Tris–HCl 50 mM), 0.5 M NaCl, 0.5 µM dansylated peptide vs 1.5–6.0 µM N-SH3) was 3.9e+07 ± 4e+06 M⁻¹ s⁻¹.
